Experimental data from patent EP0291696A2, “Process of multiplication of epithelial cells” (Battelle-Institut e.V., priority 1987, dated 1988).

How the values were obtained:
Keratinozyten [1] = assay: Keratinocyte culture: cell count after 12 days and days to confluence (Beispiel 2); assay type: cell-based, human
Keratinozyten [2] = assay: Keratinocyte culture with FCS or Nu-Serum: cell count after 12 days and days to confluence (Beispiel 3); assay type: cell-based, human
Text: Kerationozyten wurden durch Trypsinierung von Haut nach der Methode von M. Green (Green, M. et al, PNAS 76 (1979) 5665) gewonnen und in einer Zelldichte von 2,5 x 10 ⁴ Zellen/cm² ausgesät. Die Hautproben in den Beispielen 1, 2 und 3 stammten von Patienten die zwischen 30 und 40 Jahre alt waren. Zusätzlich wurden die Kulturen mit 2 x 10 ⁴ Zellen/cm² letal bestrahlter 3T3-Fibroblasten inokuliert, beschrieben im US-Patent 4,016,036.
Als Medium diente eine Mischung aus DMEM und HAM's F 12 (3:1) mit folgenden Zusätzen: Hydrocortison 0,4 ug/ml Insulin 5 ug/ml Triiodo-Thyronin 2x10⁻⁹M Transferrin 5 ug/ml Adenin 8 x 10⁻⁴ M Gentamycin, Penicillin, Streptomycin je 50 ug/ml Fötales Kälberserum 10 % EGF (nach 2 Tagen) 10 ng/ml
In diesem Experiment, das wie unter Beispiel 1 beschrieben durchgeführt wurde, wurden verschiedene Forskolinkonzentrationen unter Verwendung bzw. in Vergleich von 10 % fötalem Kälberserum (FCS) und einem synthetischen Serum der Firma Biomedica Wien (Nu-Serum Nr. 1) untersucht.

C=C[C@@]1(C)CC(=O)[C@]2(O)[C@@]3(C)[C@@H](O)CCC(C)(C)[C@@H]3[C@H](O)[C@H](OC(C)=O)[C@@]2(C)O1 [Forskolin]
Anzahl der Tage bis zur Konfluenz (Keratinozyten [1]; 5x10^-5M): 18 Tage
Zellzahl nach 12 Tagen in einer 25cm^2 Kultur-schale (Keratinozyten [1]; 5x10^-5M): 13 x 10^5
Anzahl der Tage bis zur Konfluenz (Keratinozyten [1]; 5x10^-6M): 14 Tage
Zellzahl nach 12 Tagen in einer 25cm^2 Kultur-schale (Keratinozyten [1]; 5x10^-6M): 23 x 10^5
Anzahl der Tage bis zur Konfluenz (Keratinozyten [1]; 10^-5M): 14 Tage
Zellzahl nach 12 Tagen in einer 25cm^2 Kultur-schale (Keratinozyten [1]; 10^-5M): 25 x 10^5
Anzahl der Tage bis zur Konfluenz (Keratinozyten [1]; 10^-6M): 18 Tage
Zellzahl nach 12 Tagen in einer 25cm^2 Kultur-schale (Keratinozyten [1]; 10^-6M): 12 x 10^5
Anzahl der Tage bis zur Konfluenz (Keratinozyten [1]; 10^-7M): 24 Tage
Zellzahl nach 12 Tagen in einer 25cm^2 Kultur-schale (Keratinozyten [1]; 10^-7M): 8 x 10^5
Zellzahl nach 12 Tagen in einer 25cm^2 Kultur-schale (Keratinozyten [1]; 10^-8M): 2,5 x 10^5
Reduction of the Zeit bis zum Erreichen einer konfluenten Keratinozytenkultur im Vergleich zu Cholera Toxin (Keratinozyten [1]; Forskolin 5 x 10⁻⁶ bzw. 10⁻⁵ in the medium): ≤ 40%
Anzahl der Tage bis zur Konfluenz (Keratinozyten [2]; FCS, 5x10^-5M): 18 Tage
Zellzahl nach 12 Tagen in einer 25cm^2 Kultur-schale (Keratinozyten [2]; FCS, 5x10^-5M): 16 x 10^5
Anzahl der Tage bis zur Konfluenz (Keratinozyten [2]; FCS, 5x10^-6M): 15 Tage
Zellzahl nach 12 Tagen in einer 25cm^2 Kultur-schale (Keratinozyten [2]; FCS, 5x10^-6M): 24 x 10^5
Anzahl der Tage bis zur Konfluenz (Keratinozyten [2]; FCS, 10^-5M): 14 Tage
Zellzahl nach 12 Tagen in einer 25cm^2 Kultur-schale (Keratinozyten [2]; FCS, 10^-5M): 32 x 10^5
Anzahl der Tage bis zur Konfluenz (Keratinozyten [2]; FCS, 10^-6M): 20 Tage
Zellzahl nach 12 Tagen in einer 25cm^2 Kultur-schale (Keratinozyten [2]; FCS, 10^-6M): 14 x 10^5
Anzahl der Tage bis zur Konfluenz (Keratinozyten [2]; Nu-Serum, 5x10^-5M): 18 Tage
Zellzahl nach 12 Tagen in einer 25cm^2 Kultur-schale (Keratinozyten [2]; Nu-Serum, 5x10^-5M): 13 x 10^5
Anzahl der Tage bis zur Konfluenz (Keratinozyten [2]; Nu-Serum, 5x10^-6M): 16 Tage
Zellzahl nach 12 Tagen in einer 25cm^2 Kultur-schale (Keratinozyten [2]; Nu-Serum, 5x10^-6M): 25 x 10^5
Anzahl der Tage bis zur Konfluenz (Keratinozyten [2]; Nu-Serum, 10^-5M): 15 Tage
Zellzahl nach 12 Tagen in einer 25cm^2 Kultur-schale (Keratinozyten [2]; Nu-Serum, 10^-5M): 27 x 10^5
Anzahl der Tage bis zur Konfluenz (Keratinozyten [2]; Nu-Serum, 10^-6M): 20 Tage
Zellzahl nach 12 Tagen in einer 25cm^2 Kultur-schale (Keratinozyten [2]; Nu-Serum, 10^-6M): 14 x 10^5
